Results reported in patent publication US6737383B1, “Herbicidal oxadiazolidines” (priority 1999, dated 2004).

Tests used:
[1] = tested on: blackgrass; experiment: Test B pre/postemergence blackgrass; format: in vivo, Alopecurus myosuroides
Procedure, shortened: (§1)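 Herbicidal effect was estimated by eye on a ten-point control scale after plants spent twelve to sixteen days in a greenhouse following soil or foliar treatment. Foliar sprays targeted plants at one to four leaves; all doses were formulated in a non-phytotoxic solvent with surfactant.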

[2] = tested on: surinam grass; experiment: Test B pre/postemergence surinam grass; format: in vivo, Brachiaria decumbens
Procedure, shortened: as §1

[3] = tested on: cocklebur; experiment: Test B pre/postemergence cocklebur; format: in vivo, Xanthium strumarium
Procedure, shortened: as §1

[4] = tested on: corn; experiment: Test B pre/postemergence corn; format: in vivo, Zea mays
Procedure, shortened: as §1

[5] = tested on: crabgrass; experiment: Test B pre/postemergence crabgrass; format: in vivo, Digitaria sanguinalis
Procedure, shortened: as §1

[6] = tested on: giant foxtail; experiment: Test B pre/postemergence giant foxtail; format: in vivo, Setaria faberii
Procedure, shortened: as §1

[7] = tested on: morningglory; experiment: Test B pre/postemergence morningglory; format: in vivo, Ipomoea hederacea
Procedure, shortened: as §1

[8] = tested on: pigweed; experiment: Test B pre/postemergence pigweed; format: in vivo, Amaranthus retroflexus
Procedure, shortened: as §1

[9] = tested on: rape; experiment: Test B pre/postemergence rape; format: in vivo, Brassica napus
Procedure, shortened: as §1

[10] = tested on: sugar beet; experiment: Test B pre/postemergence sugar beet; format: in vivo, Beta vulgaris
Procedure, shortened: as §1

[11] = tested on: velvetleaf; experiment: Test B pre/postemergence velvetleaf; format: in vivo, Abutilon theophrasti
Procedure, shortened: as §1

[12] = tested on: wheat; experiment: Test B pre/postemergence wheat; format: in vivo, Triticum aestivum
Procedure, shortened: as §1

[13] = tested on: purple nutsedge; experiment: Test B pre/postemergence purple nutsedge; format: in vivo, Cyperus rotundus; conditions: Postemergence
Procedure, shortened: as §1

[14] = tested on: rice; experiment: Test B flood test rice; format: in vivo, Oryza sativa
Procedure, shortened: (§2)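 Each value is a visual injury score relative to controls, with 10 meaning complete control and 0 no effect. Evaluation took place twelve to sixteen days after the 2-leaf-stage plants were treated and kept in the greenhouse.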

[15] = tested on: smallflower flatsedge; experiment: Test B flood test smallflower flatsedge; format: in vivo, Cyperus difformis
Procedure, shortened: as §2

[16] = tested on: duck salad; experiment: Test B flood test duck salad; format: in vivo, Heteranthera limosa
Procedure, shortened: as §2

[17] = Postemergence, Rate 250 g/ha, scale 0 to 10, 0 no effect, 10 complete control
[18] = Postemergence, Rate 1000 g/ha, scale 0 to 10 (0 no effect, 10 complete control)
[19] = Preemergence, Rate 125 g/ha, scale 0 to 10 (0 no effect, 10 complete control)
[20] = Preemergence, Rate 250 g/ha, scale of 0 to 10 where 0 is no effect and 10 is complete control
[21] = Preemergence, Rate 500 g/ha, scale 0 (no effect) to 10 (complete control)
[22] = Rate 125 g/ha, Postemergence, scale 0 to 10, 0 no effect, 10 complete control
[23] = Rate 500 g/ha, Postemergence, 0 to 10 scale (0 no effect, 10 complete control)
[24] = Rate 1000 g/ha, Preemergence, scale 0 to 10 (0 no effect, 10 complete control)
[25] = Rate 125 g/ha, Postemergence section (flood test species), scale 0 to 10, 0 no effect, 10 complete control
[26] = Rate 500 g/ha, Postemergence section of Table B, 0 to 10 scale (0 no effect, 10 complete control)
[27] = flood test, listed under Postemergence, Rate 250 g/ha, scale 0 to 10, 0 no effect, 10 complete control

Compound: CCN(CC)C(=O)n1oc(=O)n(-c2ccc(F)cc2)c1=O [Compound 3]
- Blackgrass plant response rating [1, 17]: 0
- Blackgrass plant response rating [1, 18]: 3
- Plant response rating, Blackgrass [1, 19]: 0
- Plant response rating, Blackgrass [1, 20]: 0
- Blackgrass plant response rating [1, 21]: 0
- Blackgrass plant response rating [1, 22]: 0
- Blackgrass plant response rating [1, 23]: 0
- Plant response rating, Blackgrass [1, 24]: 0
- B. signalgrass plant response rating [2, 17]: 0
- B. signalgrass plant response rating [2, 18]: 0
- Plant response rating, B. signalgrass [2, 19]: 0
- Plant response rating, B. signalgrass [2, 20]: 0
- B. signalgrass plant response rating [2, 21]: 0
- B. signalgrass plant response rating [2, 22]: 0
- B. signalgrass plant response rating [2, 23]: 0
- Plant response rating, B. signalgrass [2, 24]: 0
- Cocklebur plant response rating [3, 17]: 0
- Cocklebur plant response rating [3, 18]: 2
- Plant response rating, Cocklebur [3, 19]: 0
- Plant response rating, Cocklebur [3, 20]: 0
- Cocklebur plant response rating [3, 21]: 0
- Cocklebur plant response rating [3, 22]: 0
- Cocklebur plant response rating [3, 23]: 0
- Plant response rating, Cocklebur [3, 24]: 0
- Corn plant response rating [4, 17]: 0
- Corn plant response rating [4, 18]: 0
- Plant response rating, Corn [4, 19]: 0
- Plant response rating, Corn [4, 20]: 0
- Corn plant response rating [4, 21]: 0
- Corn plant response rating [4, 22]: 0
- Corn plant response rating [4, 23]: 0
- Plant response rating, Corn [4, 24]: 0
- Crabgrass plant response rating [5, 17]: 0
- Crabgrass plant response rating [5, 18]: 7
- Plant response rating, Crabgrass [5, 19]: 0
- Plant response rating, Crabgrass [5, 20]: 0
- Crabgrass plant response rating [5, 21]: 0
- Crabgrass plant response rating [5, 22]: 0
- Crabgrass plant response rating [5, 23]: 6
- Plant response rating, Crabgrass [5, 24]: 2
- Giant foxtail plant response rating [6, 17]: 3
- Giant foxtail plant response rating [6, 18]: 8
- Plant response rating, Giant foxtail [6, 19]: 0
- Plant response rating, Giant foxtail [6, 20]: 1
- Giant foxtail plant response rating [6, 21]: 8
- Giant foxtail plant response rating [6, 22]: 0
- Giant foxtail plant response rating [6, 23]: 7
- Plant response rating, Giant foxtail [6, 24]: 10
- Morningglory plant response rating [7, 17]: 0
- Morningglory plant response rating [7, 18]: 0
- Plant response rating, Morningglory [7, 19]: 0
- Plant response rating, Morningglory [7, 20]: 0
- Morningglory plant response rating [7, 21]: 0
- Morningglory plant response rating [7, 22]: 0
- Morningglory plant response rating [7, 23]: 0
- Plant response rating, Morningglory [7, 24]: 0
- Redroot pigweed plant response rating [8, 17]: 0
- Redroot pigweed plant response rating [8, 18]: 0
- Plant response rating, Redroot pigweed [8, 19]: 0
- Plant response rating, Redroot pigweed [8, 20]: 0
- Redroot pigweed plant response rating [8, 21]: 0
- Redroot pigweed plant response rating [8, 22]: 0
- Redroot pigweed plant response rating [8, 23]: 0
- Plant response rating, Redroot pigweed [8, 24]: 0
- Rape plant response rating [9, 17]: 0
- Rape plant response rating [9, 18]: 0
- Plant response rating, Rape [9, 19]: 0
- Plant response rating, Rape [9, 20]: 0
- Rape plant response rating [9, 21]: 0
- Rape plant response rating [9, 22]: 0
- Rape plant response rating [9, 23]: 0
- Plant response rating, Rape [9, 24]: 0
- Sugarbeets plant response rating [10, 17]: 0
- Sugarbeets plant response rating [10, 18]: 0
- Plant response rating, Sugarbeets [10, 19]: 0
- Plant response rating, Sugarbeets [10, 20]: 0
- Sugarbeets plant response rating [10, 21]: 0
- Sugarbeets plant response rating [10, 22]: 0
- Plant response rating, Sugarbeets [10, 24]: 0
- Velvetleaf plant response rating [11, 17]: 0
- Velvetleaf plant response rating [11, 18]: 0
- Plant response rating, Velvetleaf [11, 19]: 0
- Plant response rating, Velvetleaf [11, 20]: 0
- Velvetleaf plant response rating [11, 21]: 0
- Velvetleaf plant response rating [11, 22]: 0
- Plant response rating, Velvetleaf [11, 24]: 0
- Wheat plant response rating [12, 17]: 0
- Wheat plant response rating [12, 18]: 0
- Plant response rating, Wheat [12, 19]: 0
- Plant response rating, Wheat [12, 20]: 0
- Wheat plant response rating [12, 21]: 0
- Wheat plant response rating [12, 22]: 0
- Plant response rating, Wheat [12, 24]: 0
- Nutsedge plant response rating ([13]; Rate 250 g/ha, scale 0 to 10, 0 no effect, 10 complete control): 0
- Nutsedge plant response rating ([13]; Rate 1000 g/ha, scale 0 to 10 (0 no effect, 10 complete control)): 0
- Nutsedge plant response rating ([13]; Rate 125 g/ha, scale 0 to 10, 0 no effect, 10 complete control): 0
- Nutsedge plant response rating ([13]; Rate 500 g/ha, 0 to 10 scale (0 no effect, 10 complete control)): 0
- Rice plant response rating [14, 18]: 0
- Rice plant response rating [14, 25]: 0
- Rice plant response rating [14, 26]: 0
- Rice plant response rating [14, 27]: 0
- S. Flatsedge plant response rating [15, 18]: 0
- S. Flatsedge plant response rating [15, 25]: 0
- S. Flatsedge plant response rating [15, 27]: 0
- Ducksalad plant response rating [16, 18]: 0
- Ducksalad plant response rating [16, 25]: 0
- Ducksalad plant response rating [16, 26]: 0
- Ducksalad plant response rating [16, 27]: 0
